This is an account of results in publication PMC8548882, “The Trp-rich Antimicrobial Amphiphiles With Intramolecular Aromatic Interactions for the Treatment of Bacterial Infection” (Frontiers in Microbiology, 2021).

One test concerns P. aeruginosa ATCC 27853. Briefly: Time-kill curve. Conditions: 1×10^5CFU/ml, colony counting on MHA, mean of three assays. Type of test: cell-based, Pseudomonas aeruginosa ATCC 27853. As to the method:
The logarithmic phase bacterial cells (P. aeruginosa ATCC 27853 and S. aureus ATCC 29213) were harvested and diluted to 1×10^5CFU/ml ([Dou et al., 2017]). The testing peptides at different concentrations (1×MIC, 2×MIC, and 4×MIC) were challenged with bacteria at a series of time intervals (0, 5, 10, 30, 60, and 120min). Then the reaction system was diluted several times and plated on Mueller-Hinton agar (MHA, AoBoX, Shanghai, China) plates. The plates were incubated 24h at 37°C in order to count the bacterial colonies. The data were the means of three times independent assays.

A further test deals with S.aureus 25923. It is filed as cell-based, Staphylococcus aureus ATCC 25923. Particulars: 25923. From the text:
(§1) The tested strains were kindly provided by the laboratory of Veterinary Microbiology and Immunology, the College of Veterinary Medicine, Northeast Agricultural University (gram-negative bacteria, Salmonella enterica serovar typhimurium C77-31, Salmonella typhimurium ATCC 14028, Escherichia coli ATCC 25922, Pseudomonas aeruginosa ATCC 27853 and gram-positive bacteria, Staphylococcus aureus ATCC 29213, Staphylococcus aureus ATCC 43300, Staphylococcus epidermidis ATCC 12228, Staphylococcus aureus ATCC 25923).
(§2) The famous microtiter dilution, National Committee for Clinical Laboratory Standards, was adopted to measure the antimicrobial ability of the engineering peptides ([Chou et al., 2016]). In brief, the 50μl with serial dilution was incubated with the same volume bacteria (1×10^5CFU/ml in midi-logarithmic phase) in a 96-well plate 18–24h at 37°C. The positive control was the bacteria treated with culture medium and the negative control was merely culture medium. The MICs (minimum inhibitory concentrations) were defined as the lowest concentration of peptides that prevented the production of visible turbidity ([Tossi et al., 2000]).

The subject of test [1] is P. aeruginosa ATCC 27853 cells. The test can be described thus: Outer membrane permeabilization, NPN uptake. Type of test: cell-based, Pseudomonas aeruginosa ATCC 27853. As to the method: The outer membrane permeabilization of peptides was observed by monitoring the fluorescence change of dye 1-N-phenylnaphthylamine (NPN; Dong et al., 2014c). The 10μm NPN (Sigma-Aldrich, Shanghai, China) was first incubated with the P. aeruginosa ATCC 27853 cells (OD600=0.2, suspended in 5mM HEPES buffer supplied with 5mM glucose) for 30min. Afterward, the mixture was subjected to the detection of fluorescence, which served as the background at the excitation wavelength (λ=350nm) and the emission wavelength (λ=420nm). Then the peptides with various concentrations (1μM, 2μM, 4μM, 8μM, 16μM, 32μM, and 64μM) were added into the mixture and the fluorescence was monitored until the value was tended to stable. The %NPN uptake against 10μg/ml polymyxin B was calculated to analyze the outer membrane permeability of peptides.

Test [2] concerns hRBC, IPEC-J2, HEK 293T, RAW264.7. Particulars: hRBC, IPEC-J2, HEK 293T, RAW264.7; listed as F5. Here is the method:
Besides, the therapeutic index of peptide in the mammalian eukaryotic cell (RAW 264.7, HEK 293T, and IPEC J2) was also calculated to study the biocompatibility of peptides.

The next test has as its system P.aeruginosa 27853. Type of test: cell-based, Pseudomonas aeruginosa ATCC 27853. Particulars: 27853.
Description: as §1, §2

In a further test the test system is S.typhimurium 14028. It is filed as cell-based, Salmonella typhimurium ATCC 14028.
Description: as §1

Another test deals with RAW 264.7 cells. Type of test: cell-based, murine. Particulars: RAW264.7; ratio of IC50 to GM. As to the method: The MTT (3-[4,5 dimethylthiozol-2-yl]-2,5-diphenylterazoliumbromide) dye was selected to analyze the cytotoxicity of peptides against the murine macrophage cell RAW 264.7 (National Collection of Authenticated Cell Cultures, Shanghai, China), human embryonic kidneys (HK293T), and the porcine intestinal epithelial cells (IPEC-J2) as in our previously study ([Li et al., 2020]). In short, the cells (10^4 cells/well) were seeded into 96-well plates and were cultivated overnight. Then the peptides with different final concentration (2μM, 4μM, 8μM, 16μM, 32μM, 64μM, and 128μM) were introduced into the plate and challenged with cells for 24h. After overnight incubation, the 50μl MTT (0.5mg/ml) was added into the cell cultures for 4h. Then the plate was centrifuged to discard the supernatants and obtain the formazan crystals. The DMSO (dimethyl sulfoxide) was employed as a solvent to dissolve the formazan crystals on the bottom of the plate and the optical density was read at 492nm with a microplate reader.

Test [3] has as its system human red blood cells (hRBCs). The test can be described thus: Hemolytic activity. Type of test: cell-based. Particulars: hRBC; ratio of MHC to GM. From the text:
The hemolytic activity of peptides was reflected by the releasing amount of hemoglobin from erythrocytes lysis induced by peptides ([Dong et al., 2014a]). The informed consent was obtained from the volunteers (3 healthy 25-year-old male volunteers) before the experiment. In brief, the human red blood cells (hRBCs), donated by volunteer, were collected, washed, and resuspended in PBS at pH 7.2. The peptides were serially diluted in PBS at different concentrations in a 96-well cell cultures plate and incubated with 50μl hRBCs for 1h at 37°C. The 0.1% Trition X-100 was selected as the treatment of positive control and the negative control was the hRBCs treated with PBS. After 1h incubation, the supernatant, obtained by centrifuging the plate 1,000g for 5min, was transferred to a brand-new plate for absorbance detection at 570nm. The releasing amount of hemoglobin was converted to the percent hemolysis against to 0.1% Triton X-100 treatment. The lowest concentration caused 5% hemolysis of hRBCs and was defined as the lowest hemolytic concentration of antimicrobial peptide.

The next test concerns E. coli 25922. Type of test: cell-based, Escherichia coli ATCC 25922.
Description: as §1

The test system of another test is S.aureus 29213. Type of test: cell-based, Staphylococcus aureus ATCC 29213. Particulars: 29213.
Description: as §1, §2

Ends that are not written are not given here.

With VKKWVKKWVKKWVKKW-NH2 [VW5], the “time to complete eradication of bacterial cells” value with P. aeruginosa ATCC 27853 (2×MIC) is 10 min; in the test with P. aeruginosa ATCC 27853 (4×MIC), 30 min. Moreover, the MIC against S.aureus 25923 turned out to be 2 µM; against P.aeruginosa 27853, 1 µM; in the test with S.typhimurium 14028 it was 2 µM; with E. coli 25922, 2 µM; in the test on S.aureus 29213, 2 µM. Besides, the “%NPN uptake against 10μg/ml polymyxin B” value in [1] (peptide 1μM) is recorded as 9.49%; in test [1] (peptide 64μM) it was 102.91%. Further, in test [2], the “GMTI, geometric mean of TI of various cell lines” value is above 1218.17. The “Therapeutic index (TI)” value in the test with RAW 264.7 cells is given as 1860.86; in test [3] it was above 76.19.
